Laboratory results published in paper PMC10855066, “Anti-Inflammatory and Antioxidant Pyrrolo[3,4-d]pyridazinone Derivatives Interact with DNA and Bind to Plasma Proteins—Spectroscopic and In Silico Studies” (International Journal of Molecular Sciences, 2024).

Test system: T1, α1-acid-glycoprotein (AAG); orosomucoid
T1 construct: gene ORM1; docking only used 3kq0
Assay: intrinsic fluorescence quenching, excitation […] nm
Assay type: binding
Conditions: double-log; 297 K, 0.01 M phosphate buffer pH 7.4, 1.0 µM AAG, ligand stock in EtOH, inner filter corrected

Structure (SMILES) | Binding / Kb.10^4 [dm^3.mol^-1]
Cc1c2c(OCc3nn(CN4CCN(c5ccccc5)CC4)c(=S)o3)nn(C)c(=O)c2c(C)n1-c1ccccc1 [compound 3, pyrrolo[3,4-d]pyridazinone derivative 3] | 4.57 × 10^4 dm^3·mol^−1
Cc1c2c(OCc3nn(CN4CCN(c5ccc([N+](=O)[O-])cc5)CC4)c(=S)o3)nn(C)c(=O)c2c(C)n1-c1ccccc1 [compound 4, pyrrolo[3,4-d]pyridazinone derivative 4] | 5.01 × 10^4 dm^3·mol^−1
CCCCn1c(C)c2c(OCc3nn(CN4CCN(c5ccccc5)CC4)c(=S)o3)nn(C)c(=O)c2c1C [compound 1, pyrrolo[3,4-d]pyridazinone derivative 1] | 3.09 × 10^4 dm^3·mol^−1

The remaining lines, values ahead:

Binding / Kb.10^4 [dm^3.mol^-1] | Structure (SMILES)
4.57 × 10^4 dm^3·mol^−1 | CCCCn1c(C)c2c(OCc3nn(CN4CCC(O)(c5ccc(Cl)cc5)CC4)c(=S)o3)nn(C)c(=O)c2c1C [compound 2, pyrrolo[3,4-d]pyridazinone derivative 2]
1.41 × 10^4 dm^3·mol^−1 | Cc1c2c(OCc3nn(CN4CCC(O)(c5ccc(Cl)cc5)CC4)c(=S)o3)nn(C)c(=O)c2c(C)n1-c1ccccc1 [compound 5, pyrrolo[3,4-d]pyridazinone derivative 5]
